Earlier results, collected in article PMC6968775, “Assessment of contribution of BCRP to intestinal absorption of various drugs using portal‐systemic blood concentration difference model in mice” (Pharmacology Research & Perspectives, 2020).

Details: human; cited from earlier work

## O=C(O)c1cn(C2CC2)c2cc(N3CCNCC3)c(F)cc2c1=O [ciprofloxacin, Ciprofloxacin]
  oral BA in human: about 70%
